From ChEMBL document CHEMBL3045756, “Design, synthesis, antifungal activity, and ADME prediction of functional analogues of terbinafine” (Med Chem Res, 2009)
≈ marks a conversion by molar mass, not a printed value.

Columns and labels:
Candida albicans = assay: Antifungal activity against Candida albicans NCIM 3557 after 48 hr by agar streak dilution method; format: functional; conditions: NCIM 3557, 48 h
[1] = Acute toxicity in po dosed Mus musculus (mouse); format: organism-based; conditions: in vivo

Row | Structure (SMILES) | MIC (Candida albicans) | LD50 [1]
1 | CN(Cc1cc2ccccc2o1)Cc1cccc2cccnc12 | > 100 µg/mL | –
2 | CN(Cc1cccc2cccnc12)Cc1cccc2cccnc12 | 4 µg/mL (≈ 12.8 µM) | 700 mg/kg
3 | CN(Cc1ccc2ccccc2c1)Cc1cccc2cccnc12 | 8 µg/mL (≈ 25.6 µM) | > 2000 mg/kg
4 | CN(Cc1ccc(-c2ccccc2C#N)cc1)Cc1cccc2cccnc12 | > 100 µg/mL | –
5 | CN(Cc1ccc([N+](=O)[O-])cc1)Cc1cccc2cccnc12 | 25 µg/mL (≈ 81.3 µM) | > 2000 mg/kg
6 | CN(Cc1ccc(Cl)cc1)Cc1cccc2cccnc12 | 75 µg/mL (≈ 253 µM) | –
7 | CN(Cc1nc2cc(Cl)ccc2[nH]1)Cc1cccc2cccnc12 | 10 µg/mL (≈ 29.7 µM) | > 2000 mg/kg
8 | CN(Cc1nc2cc([N+](=O)[O-])ccc2[nH]1)Cc1cccc2cccnc12 | 25 µg/mL (≈ 72 µM) | > 2000 mg/kg
9 | Cc1ccc2[nH]c(CN(C)Cc3cccc4cccnc34)nc2c1 | > 100 µg/mL | –
10 | CN(Cc1nc2ccccc2[nH]1)Cc1cccc2cccnc12 | 40 µg/mL (≈ 132 µM) | –
